Our source for the IC50 values is US20260226084A1, “DUAL RAF AND TUBULIN INHIBITORS AND METHODS OF USE THEREOF” (Deciphera Pharmaceuticals, LLC, priority 2023, published 2026).

Assay [1] has as its target T1, B-Raf kinase (SEQ ID NO: 1) (Homo sapiens, UniProt P15056).
T1 construct: GST (N); purchased Sigma
Put plainly: Biochemical Assay for B-Raf (coupled pyruvate kinase/lactate dehydrogenase assay). Particulars: 1 mM ATP; read-out: BRAF (inhibition of biochemical activity, IC50).

Assay [2] has as its target T2, C-Raf kinase (SEQ ID NO: 2) (Homo sapiens, UniProt P04049, Y340D/Y341D).
T2 construct: C-Raf residues 306-end; Y340D, Y341D with; GST (N); purchased Sigma
In words: Biochemical Assay for C-Raf (coupled pyruvate kinase/lactate dehydrogenase assay). Particulars: 1 mM ATP; read-out: CRAF (inhibition of biochemical activity, IC50).

For another assay, the system named is MiaPaca-2 cells. In words: MiaPaca-2 Cell Proliferation Assay. Type of assay: cell-based. Particulars: Homo sapiens, MIA PaCa-2, MiaPaca-2 cells; Table 2; read-out: Inhibition of cell proliferation in MiaPaca-2 (IC50 class). As for the experimental part:
Miapaca-2 cells (catalog #CRL-1420) are obtained from the American Type Culture Collect (ATTC, Manassas, VA). Briefly, cells were grown in DMVEM supplemented with 10 characterized fetal bovine serum (Invitrogen, Carlsbad, CA), 2.5% New Zealand sourced horse serum and 1 Penicillin/Streptomycin/L-Glutamine at 37° C., 5 CO2, and 95% humidity. Cells are expanded until reaching 70-95% confluency at which point they are sub-cultured or harvested for assay use. A serial dilution of test compound is dispensed into a 96-well black clear bottom plate in triplicate. Three thousand cells are added per well in 200 μL complete growth medium in the 96-well plate. Plates are incubated for 67 to 72 h at 37° C., 5% CO2, and 95% humidity. At the end of the incubation, 40 μL of a 440 μM solution of resazurin (Sigma, St. Louis, MO) in PBS is added to each well of the plate and plates are incubated for an additional 5 to 6 h at 37° C., 5% CO2, and 95% humidity. Plates are read on a Synergy2 or equivalent reader (Biotek, Winooski VT) using an excitation of 540 nm and an emission of 600 nm. Data is analyzed using Prism software (Graphpad, San Diego, CA) to calculate IC50 values.

Another assay deals with HCT-116 cells. Put plainly: HCT-116 Cell Proliferation Assay. Type of assay: cell-based. Particulars: Homo sapiens, HCT-116, HCT-116 cells; Table 2; read-out: Inhibition of cell proliferation in HCT-116 (IC50 class). The protocol:
HCT-116 cells (catalog #CCL-247) are obtained from the American Type Culture Collect (ATCC, Manassas, VA). Briefly, cells are grown in McCoy's 5A supplemented with 10% characterized fetal bovine serum (Invitrogen, Carlsbad, CA) and 1% Penicillin/Streptomycin/L-Glutamine at 37° C., 5% CO2, and 95% humidity. Cells are expanded until reaching 70-95% confluency at which point they are subcultured or harvested for assay use. A serial dilution of test compound is dispensed into a 384-well black clear bottom plate in triplicate. 375 cells are added per well in 50 μL complete growth medium in the 384-well plate. Plates are incubated for 67 to 72 hours at 37° C., 5% CO2, and 95% humidity. At the end of the incubation, 40 μL of a […] solution of resazurin (Sigma, St. Louis, MO) in PBS is added to each well of the plate and plates are incubated for an additional 4 to 5 h at 37° C., 5% CO2, and 95% humidity. Plates are read on a Synergy2 or equivalent reader (Biotek, Winooski, VT) using an excitation of 540 nm and an emission of 600 nm. Data is analyzed using Prism software (Graphpad, San Diego, CA) to calculate IC50 values.

The subject of a further assay is HPAF-II cells. Put plainly: HPAF-II Cell Proliferation Assay. Type of assay: cell-based. Particulars: Homo sapiens, HPAF-II, HPAF-II cells; Table 2; read-out: Inhibition of cell proliferation in HPAF-II (IC50 class). As for the experimental part:
(§1) HPAF-II cells (catalog #CRL-1997) are obtained from the American Type Culture Collect (ATCC, Manassas, VA). Briefly, cells are grown in Minimum Essential Media supplemented with 10% characterized fetal bovine serum (Invitrogen, Carlsbad, CA) and 1% Penicillin/Streptomycin/L-Glutamine at 37° C., 5% CO2, and 95% humidity. Cells are expanded until reaching 70-95% confluency at which point they are sub-cultured or harvested for assay use. A serial dilution of test compound is dispensed into a 384-well black clear bottom plate in triplicate. 750 cells are added per well in 50 μL complete growth medium in the 384-well plate. Plates are incubated for 115 to 120 hours at 37° C., 5% CO2, and 95% humidity. At the end of the incubation, 40 μL of a 440 μM solution of resazurin (Sigma, St. Louis, MO) in PBS is added to each well of the plate and plates are incubated for an additional 18 to 24 hours at 37° C., 5% CO2, and 95% humidity. Plates are read on a Synergy2 or equivalent reader (Biotek, Winooski, VT) using an excitation of 540 nm and an emission of 600 nm. Data is analyzed using Prism software (Graphpad, San Diego, CA) to calculate IC50 values.

A further assay relates to Pa16c cells. Put plainly: Pa16c Cell Proliferation Assay. Particulars: Table 2, read-out: Inhibition of cell proliferation in Pa16c (IC50 class). The class given is cell-based. The protocol:
as §1, with “Pa16c” for “HPAF-II”, “cells” for “cells (catalog #CRL-1997)”, “Dr. Channing Der, University of North Carolina at Chapel Hill.” for “the American Type Culture Collect (ATCC, Manassas, VA).”, “Dulbecco's Modified Eagle Medium” for “Minimum Essential Media”, “67” for “115”, “72 h” for “120 hours”

T1 sequence (P15056 416-766): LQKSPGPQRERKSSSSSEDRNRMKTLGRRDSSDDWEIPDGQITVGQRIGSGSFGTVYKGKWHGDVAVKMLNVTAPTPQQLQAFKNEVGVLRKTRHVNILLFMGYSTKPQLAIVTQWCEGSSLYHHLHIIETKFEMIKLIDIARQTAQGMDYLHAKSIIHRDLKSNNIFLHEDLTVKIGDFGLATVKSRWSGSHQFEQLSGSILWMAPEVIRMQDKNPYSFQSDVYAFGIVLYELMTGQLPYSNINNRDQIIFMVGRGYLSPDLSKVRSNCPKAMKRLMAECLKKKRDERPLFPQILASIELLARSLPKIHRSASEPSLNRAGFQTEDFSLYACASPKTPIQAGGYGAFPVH
T2 sequence (P04049 307-648 Y340D/Y341D): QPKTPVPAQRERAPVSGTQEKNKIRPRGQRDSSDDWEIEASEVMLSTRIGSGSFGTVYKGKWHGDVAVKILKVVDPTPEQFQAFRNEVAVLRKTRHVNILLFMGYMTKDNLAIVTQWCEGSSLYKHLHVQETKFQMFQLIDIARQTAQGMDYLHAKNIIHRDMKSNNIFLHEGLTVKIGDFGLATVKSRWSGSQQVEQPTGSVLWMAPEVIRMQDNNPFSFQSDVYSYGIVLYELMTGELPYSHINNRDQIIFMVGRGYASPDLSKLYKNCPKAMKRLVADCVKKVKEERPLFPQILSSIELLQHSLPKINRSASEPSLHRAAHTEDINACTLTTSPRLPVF

Regarding `CC(=O)Nc1cc(-c2cncc(-c3cc(NC(=O)c4ccc(C(F)F)nc4)ccc3C)n2)ccn1` [Example 26], the IC50 in assay [1] fell in the range of 100 to 500 nM; in assay [2] it was 100 to 500 nM; in the assay on MiaPaca-2 cells, 100 to 500 nM; in the assay with HCT-116 cells, 100 to 500 nM; in the assay on HPAF-II cells it was 500 to 1000 nM; in the assay with Pa16c cells it was 500 to 1000 nM.

Consider `Cc1ncc(NC(=O)c2cc(C(F)(F)F)cnn2)cc1-c1ccnc(-c2ccnc(NC(=O)C3CC3)c2)c1` [Example 34], for which the IC50 in assay [1] was less than 100 nM; in assay [2], less than 100 nM; in the assay with MiaPaca-2 cells, 1000 to 10000 nM; in the assay on HCT-116 cells it was 1000 to 10000 nM; with HPAF-II cells it was 1000 to 10000 nM; in the assay with Pa16c cells it was 1000 to 10000 nM.

As for `Cc1cc(-c2cc(NC(=O)c3cc(C(F)(F)F)cnn3)cnc2C)cc(-c2ccnc(NC(=O)C3CC3)c2)n1` [Example 35], the IC50 in assay [1] is less than 100 nM; in assay [2], less than 100 nM; with MiaPaca-2 cells, 1000 to 10000 nM; with HCT-116 cells, 1000 to 10000 nM; in the assay on HPAF-II cells it was 1000 to 10000 nM; with Pa16c cells it was 1000 to 10000 nM.

`Cc1cnc(NC(=O)c2cc(C(F)(F)F)cnn2)cc1-c1ccnc(-c2ccnc(NC(=O)C3CC3)c2)c1` [Example 36]: the IC50 in assay [1] was less than 100 nM; in assay [2], less than 100 nM; in the assay with MiaPaca-2 cells it was 1000 to 10000 nM; in the assay on HCT-116 cells it was 100 to 500 nM; with HPAF-II cells, 1000 to 10000 nM; in the assay on Pa16c cells it was 1000 to 10000 nM.

For `Cc1ccc(NC(=O)c2cc(C(F)(F)F)cnn2)cc1-c1ccnc(-c2ccnc(/N=C/N(C)C)c2)c1` [Example 37, (E)-N-(3-(2′-(((dimethylamino)methylene)amino)-[2,4′-bipyridin]-4-yl)-4-methylphenyl)-5-(trifluoromethyl)pyridazine-3-carboxamide], the IC50 in assay [1] is less than 100 nM; in assay [2], less than 100 nM; with MiaPaca-2 cells it was less than 100 nM; in the assay with HCT-116 cells, 100 to 500 nM; in the assay with HPAF-II cells, 1000 to 10000 nM; in the assay on Pa16c cells it was less than 100 nM.

Consider `Cc1ccc(NC(=O)c2cc(C(C)C)cnn2)cc1-c1ccnc(-c2ccnc(NC(=O)C3CC3)c2)c1` [Example 38], for which the IC50 in assay [1] was less than 100 nM; in assay [2], less than 100 nM; with MiaPaca-2 cells it was 100 to 500 nM; in the assay on HCT-116 cells it was 100 to 500 nM; with HPAF-II cells it was 100 to 500 nM; with Pa16c cells, 500 to 1000 nM.

In the case of `Cc1ccc(NC(=O)c2cc(C(F)(F)F)cnn2)cc1-c1cncc(-c2ccnc(NC(=O)C3CC3)c2)c1` [Example 39], the IC50 is less than 100 nM in assay [1]; less than 100 nM in assay [2]; 500 to 1000 nM in the assay with MiaPaca-2 cells; 100 to 500 nM in the assay with HCT-116 cells; 500 to 1000 nM with HPAF-II cells; 100 to 500 nM with Pa16c cells.

Take `Cc1ccc(NC(=O)c2cc(Cl)cnn2)cc1-c1ccnc(-c2ccnc(NC(=O)C3CC3)c2)c1` [Example 40]: the IC50 in assay [1] is less than 100 nM; in assay [2] it was less than 100 nM; in the assay on MiaPaca-2 cells, 500 to 1000 nM; in the assay on HCT-116 cells it was 100 to 500 nM; with HPAF-II cells, 500 to 1000 nM; with Pa16c cells, 500 to 1000 nM.

`Cc1ccc(NC(=O)c2cc(C(F)(F)F)cnn2)cc1-c1ccnc(-c2ccnc(NC(=O)C3(C)CC3)c2)c1` [Example 41]: the IC50 in assay [1] is 100 to 500 nM; in assay [2], less than 100 nM; in the assay with MiaPaca-2 cells, 100 to 500 nM; in the assay on HCT-116 cells, 100 to 500 nM; with HPAF-II cells it was 1000 to 10000 nM; in the assay with Pa16c cells, less than 100 nM.

In the case of `Cc1ccc(NC(=O)c2cc(C3CCC3)cnn2)cc1-c1ccnc(-c2ccnc(NC(=O)C3CC3)c2)c1` [Example 44], the IC50 is less than 100 nM in assay [1]; less than 100 nM in assay [2]; less than 100 nM with MiaPaca-2 cells; less than 100 nM with HCT-116 cells; 100 to 500 nM in the assay on HPAF-II cells; less than 100 nM in the assay on Pa16c cells.

On to `O=C(Nc1cc(-c2ccnc(-c3ccnc(NC(=O)C4CC4)c3)c2)c(F)cc1F)c1cc(C(F)(F)F)cnn1` [Example 46], for which the IC50 in assay [1] was less than 100 nM; in assay [2], less than 100 nM; with MiaPaca-2 cells, 1000 to 10000 nM; in the assay with HCT-116 cells it was 1000 to 10000 nM; in the assay with HPAF-II cells it was 1000 to 10000 nM; in the assay with Pa16c cells, 1000 to 10000 nM.

`O=C(Nc1ccc(F)c(-c2ccnc(-c3ccnc(NC(=O)C4CC4)c3)c2)c1)c1cc(C(F)(F)F)cnn1` [Example 47]: the IC50 in assay [1] was less than 100 nM; in assay [2], less than 100 nM; in the assay with MiaPaca-2 cells, 1000 to 10000 nM; with HCT-116 cells, 1000 to 10000 nM; with HPAF-II cells it was 1000 to 10000 nM; with Pa16c cells, 1000 to 10000 nM.

In the case of `COCC(=O)Nc1cc(-c2cc(-c3cc(NC(=O)c4cc(C(F)(F)F)cnn4)ccc3C)ccn2)ccn1` [Example 48], the IC50 is less than 100 nM in assay [1]; less than 100 nM in assay [2]; less than 100 nM in the assay on MiaPaca-2 cells; less than 100 nM in the assay on HCT-116 cells; 100 to 500 nM in the assay with HPAF-II cells; less than 100 nM with Pa16c cells.

In the case of `COc1cnnc(C(=O)Nc2ccc(C)c(-c3ccnc(-c4ccnc(NC(=O)C5CC5)c4)c3)c2)c1` [Example 49], the IC50 was less than 100 nM in assay [1]; less than 100 nM in assay [2]; 500 to 1000 nM in the assay with MiaPaca-2 cells; 100 to 500 nM in the assay on HCT-116 cells; 100 to 500 nM with HPAF-II cells; 1000 to 10000 nM with Pa16c cells.

`CNc1cc(-c2cc(-c3cc(NC(=O)c4cc(C(F)(F)F)cnn4)ccc3C)ccn2)ccn1` [Example 50]: the IC50 in assay [1] is less than 100 nM; in assay [2] it was 100 to 500 nM; in the assay on MiaPaca-2 cells, less than 100 nM; in the assay with HCT-116 cells it was 100 to 500 nM; with HPAF-II cells, 100 to 500 nM; in the assay on Pa16c cells, 100 to 500 nM.

As to `Cc1ccc(NC(=O)c2cc(C(F)(F)F)cnn2)cc1-c1ccnc(-c2ccnc(NC(=O)C3CCN(C)C3)c2)c1` (stereo not drawn) [Example 51], the IC50 in assay [1] was less than 100 nM; in assay [2], less than 100 nM; in the assay with MiaPaca-2 cells, 100 to 500 nM; with HCT-116 cells, 100 to 500 nM; with HPAF-II cells, 100 to 500 nM; in the assay with Pa16c cells, 500 to 1000 nM.
